Each structure is given as a SMILES string. Several values for one entry are separate records, joined by “and”; a condition that tells them apart may be missing. Equal entries are not always repeated.

Results on 1 compound are retold here after patent publication US20160331783A1, “BISAMIDE COMPOUNDS AS ALLOSTERIC EFFECTORS FOR REDUCING THE OXYGEN-BINDING AFFINITY OF HEMOGLOBIN” (THE GENERAL HOSPITAL CORPORATION, priority 2014, published 2016).

Data set [1] addresses T1, purified human hemoglobin (Homo sapiens, UniProt P68871).
T1 construct: For experiments with purified hemoglobin, hemoglobin (20 μM as tetramer) was dissolved in DPBS
Nature of the data set: Oxygen dissociation curve (ODC) of purified hemoglobin, Hemox analyzer, P50. It is filed as biochemical. How it is done: The ODC of hemoglobin was measured with a Hemox analyzer (TCS Scientific Corporation) at 37° C. For experiments with purified hemoglobin, hemoglobin (20 μM as tetramer) was dissolved in DPBS and antifoam (0.2 vol %, Catalog No. AFA-25, TCS Scientific Corporation) was added to prevent foaming of the sample. Compounds were prepared in DMSO stock solutions then added to hemoglobin. The final concentration of DMSO was adjusted to 5 vol %. For experiments with RBCs, blood was drawn from volunteers into EDTA tubes. The blood was centrifuged for 15 min at 3,000 rpm at 4° C. The supernatant was discarded, and RBCs were washed three times with DPBS, pH 7.4 by dilution to 50% hematocrit. The washed RBCs were then diluted with Hemox solution (mixture of N-[Tris(hydroxymethyl)methyl]-2-aminoethanesulfonic acid (TES, 30 mM), sodium chloride (135 mM), and potassium chloride (5 mM) in water (pH 7.4), TCS Scientific Corporation), and mixed with the test compound stock solutions. When known allosteric effectors NEM (400 μM), 5HMF (2 mM) or formamidine disulfide (400 μM) were mixed with RBCs (20 μM as hemoglobin tetramer) for 1 h at 37° C., P50 was reduced to 8 Torr, 9 Torr, and 9 Torr respectively, which correlated with previous reports (see Garel et al., European Journal of Biochemistry, 1982, 123, 513-519). Data was analyzed by two-tailed, unpaired Student's t test using Microsoft Excel 2007.
A saturating effect on P50 was first determined by adding an increasing concentration of 2,3-DPG and IHP. No increase of P50 of hemoglobin was observed after an addition of a 30-fold molar excess of 2,3-DPG or IHP to hemoglobin. Hemoglobin (20 μM as tetramer) was pre-incubated with either 2,3-DPG (600 μM) or IHP (600 μM) followed by addition of Compound 1 (0, 50, 100, 150 and 200 μM) to the hemoglobin.

Data set [2] deals with RBCs. Nature of the data set: Hemolysis of RBCs / blood on incubation with compound. It is filed as cell-based, human. Conditions: compound 20 μM in DPBS with 5% DMSO.
Data set [3] has as its target deoxygenated hemoglobin (deoxyHb) (Homo sapiens, UniProt P68871). Description: X-ray crystallography of deoxyHb complexed with Compound 1. The format is binding. The note with it: PDB 4L7Y, 1.80 Å. How it is done:
To obtain unliganded hemoglobin structure in complex with 1, freshly prepared solution of 1 in DMSO was incubated with deoxygenated hemoglobin (deoxyHb) (30-50 mg/mL) for 1 h at a hemoglobin tetramer-1 molar ratio of 1:5, followed by crystallization with a low-salt precipitant (0.2 M sodium acetate trihydrate, 0.1 M sodium cacodylate trihydrate, pH 6.6 and 30% PEG 8000). The crystals were washed in a cryo-protectant solution containing mother liquor and glycerol (3:1 ratio) prior to data collection. The complex crystallized in the orthorhombic space group P21212 with typical cell dimensions a=96 Å, b=98 Å and c=65 Å with one functional tetramer per asymmetric unit.
Diffraction data of all crystals were collected at 100 K with a Rigaku IV ++ image plate detector using a CuKα X-rays (k=1.54 Å) from a MicroMax-007 source fitted with Varimax Confocal optics (Rigaku, The Woodlands, Tex.). The datasets were processed with the d*trek software (Rigaku) and the CCP4 suite of programs.
Initial phase for the deoxyHb-1 complex structure was obtained by a molecular replacement method with the program CNS, using human deoxyHb […] tetramer structure (PDB code 2DN2) as a search model. Subsequent structure refinements were performed with the CNS program. Model building and correction were carried out using the graphic program COOT. […]

With `Cc1cc(C)cc(C(=O)N(C)[C@H](Cc2ccc(-c3ccccc3)cc2)C(=O)N[C@@H](Cc2c[nH]c3ccccc23)C(=O)O)c1` [Compound 1, (S)-2-((R)-3-([1,1′-biphenyl]-4-yl)-2-(N,3,5-trimethylbenzamido)propanamido)-3-(1H-indol-3-yl)propanoic acid], the “Increase of P50 of hemoglobin, dose dependence” value in data set [1] (FIG. 3, FIG. 6-7) was “concentration-dependent”. In addition, in data set [1] (hemoglobin 20 μM tetramer, compound 200 μM, DPBS pH 7.4, 5 vol % DMSO, 37° C., hemoglobin alone 17 Torr), the P50 of hemoglobin was 24 Torr and 24±0.4 Torr. In data set [1] (hemoglobin 20 μM, 2,3-DPG 600 μM, Compound 1 200 μM), the “P50 of hemoglobin pre-saturated with 2,3-DPG plus Compound 1” value is 29±0.5 Torr. In addition, the “Synergistic reduction of oxygen binding affinity in combination with 2,3-DPG” value in data set [1] (hemoglobin 20 μM, 2,3-DPG 600 μM, Compound 1 up to 200 μM) is “synergistic reduction”. In addition, in data set [1] (hemoglobin 20 μM, IHP 600 μM, Compound 1 up to 200 μM), the “Synergistic reduction of oxygen binding affinity in combination with IHP” value is reported as “did not induce a synergistic reduction”. Besides, in data set [1] (hemoglobin 20 μM, tested compound 120 μM, purified hemoglobin alone 17 Torr), the “P50 with purified hemoglobin” value was 24 Torr. In addition, the “Hemolysis of RBCs” value in data set [2] is listed as “hemolysis”. Further, in data set [3], the “Binding site in deoxyHb crystal structure” value is given as “non-covalently binds at the β-cleft on the dyad axis”.
